# Source: patent US20240002470A1, “Method for separation and/or detection and/or in vitro quantification of infectious compounds in biological material” (priority 2020, published 2024)
# How the values were obtained:
# [1] = tested on: ISAV virus (Infectious salmon anemia virus); experiment: Capture of ISAV virus on magnetic microbeads coated with pepβ2GPI, RT-PCR quantification; format: binding; conditions: for ISAV copies: virus captured on coated beads from culture supernatant
# From the text: The virus used is the ISAV virus (Infectious salmon anemia virus), responsible for anemia in salmon, originating from a culture supernatant.
# The microbeads, intended to fix the virus, which are used are magnetic microbeads sold by the company MERCK under the name “Estapor® super-paramagnetic microspheres” which have a diameter between […].
# (§1) The pepβ2GPI were grafted onto the microbeads according to the supplier's recommendations. In summary, the microbeads are suspended in phosphate buffer at a pH of 6.0. The beads are then activated, for 15 minutes, in the presence of 1-ethyl-3-(3-Dimethylaminopropyl) carbodiimide and N-hydroxysuccinimide. After washing with HCl, 2 mM, the beads are suspended in a phosphate buffer at a pH of 7.5, containing the pepβ2GPI. The concentration of pepβ2GPI in this coupling buffer is 20 mg/L; the microbeads are incubated in the buffer with gentle and constant shaking at a temperature of 25° C. for 3 hours. The microbeads are then centrifuged at 1,500 rpm and the supernatant is removed; the centrifugation pellet is suspended in the same buffer as that used for the coupling of pepβ2GPI, which forms the suspension of microbeads coated with pepβ2GPI which we want to test.
# (§2) One hundred microliters of viral culture supernatant to be studied are placed in an Eppendorf tube with 900 microliters of Tris buffer at a pH of 7.5 and 10 microliters of microbeads. The tubes are shaken horizontally to mix the microbeads well, and each tube is incubated at 37° C. or at room temperature (RT=22° C.) for 30 minutes. In each tube, the microbeads are then separated from the liquid phase by means of a magnet, placed externally against the wall of the tube, and the viral RNA is extracted. The beads are brought into contact with a viral lysis buffer, included in an RNA extraction kit: QIAamp RNA viral kit, sold by QIAGEN and the viral RNA is isolated according to the seller's recommendations.
# The RNA is then transcribed into complementary DNA, in the presence of reverse transcriptase, according to the following protocol:
# Finally, the complementary DNA (cDNA) is amplified by chain reaction using a polymerase and quantified according to the following protocol: […]
# [2] = tested on: E. faecium; experiment: Capture from blood culture on magnetic microbeads, culture on TS agar: E. faecium; format: binding
# Description: (§3) The beads, on which β2GPI and peptides derived therefrom were grafted, were used for the capture of bacteria present in human blood and highlighted by blood culture.
# (§4) These blood cultures are carried out by placing a venous blood sample […] in aerobic vials of BacT/ALERT®3D type. These flasks are then incubated in an automated system at 35° C. for at least 5 days. The bottles are equipped with a colorimetric detection system with a sensor located at the base of each bottle. Carbon dioxide produced by growing bacteria changes the color of the sensor; this change in color is detected by an automated system and indicates the presence of bacterial growth: these blood cultures are said to be positive. In the BacT/ALERT®3D vials there are particles of activated carbon, which inhibit antibiotics potentially present in the blood of patients, thereby improving the detection of microorganisms. To confirm the presence of bacteria in blood cultures which have been found positive, the hospital performs a culture on blood agar. […]
# (§5) To test the interaction of microbeads coated with β2GPI and the peptides derived from them, with bacteria present in the blood, 1 ml of blood culture is taken from each sample and placed in a 15 ml tube. […] The bacteria that have grown on the agar were then counted.
# [3] = tested on: HCV virus (hepatitis C virus); experiment: Capture of HCV virus from patient plasma on magnetic microbeads coated with pepβ2GPI, RT-PCR quantification; format: binding; conditions: for HCV/run copies: per run, virus captured on coated beads from plasma of patients
# Description: as §1, §2
# The virus used is the HCV virus (hepatitis C virus), present in the plasma of patients. The same protocol as described in example 1 was carried out.
# [4] = tested on: S. maltophilia; experiment: Capture from blood culture on magnetic microbeads, culture on TS agar: S. maltophilia; format: binding
# Description: as §3, §4, §5
# [5] = tested on: IPN virus (Infectious pancreatic necrosis virus); experiment: Capture of IPN virus on magnetic microbeads coated with pepβ2GPI, RT-PCR quantification; format: binding; conditions: for IPN Copies: virus captured on coated beads from culture supernatant
# Description: as §1, §2
# The virus used is the IPN virus (Infectious pancreatic necrosis virus), responsible for necrosis of the pancreas in salmon, originating from a culture supernatant. The same protocol as described in example 1 was carried out.
# [6] = tested on: SCN; experiment: Capture from blood culture on magnetic microbeads, culture on TS agar: SCN; format: binding
# Description: as §3, §4, §5
# [7] = tested on: E. coli B6054; experiment: Capture of E. coli B6054 on magnetic microbeads, culture on TS agar and counting; format: binding, Escherichia coli; conditions: E. coli B6054 colonies from captured beads
# [8] = tested on: bacteria present in treated wastewater; experiment: Capture of bacteria present in treated wastewater on magnetic microbeads, culture and counting; format: binding
# Description: One ml of the culture of bacteria to be studied is placed in a hemolysis tube. 100 μl of buffer are added, the trade name of which is TTGB, then 20 μl of microbeads. The tube is stirred horizontally, to mix the microbeads well, and incubated at 37° C. or at room temperature (TA=22° C.) for half an hour. At the end of the incubation, the microbeads are separated from the liquid phase by means of a magnet, placed externally against the wall of the tube. The microbeads are then washed twice with LB medium and then resuspended in 1 ml of BTS culture medium (Tripticase-Soy broth) having the following formulation: […]
# This culture medium is brought to a boil and then autoclaved, to make it sterile, before use. 20 μl of the microbead suspension are taken and spread in a Petri dish containing TS agar (Trypticase-Soya agar) having the following formulation: […]
# The Petri dishes are incubated at +37° C. for 24 hours. The bacteria that have grown on the agar are then counted.
# The beads, on which β2GPI and peptides derived therefrom were grafted, were used to capture the bacteria present in treated wastewater. This water was recovered at the outlet of the purifier from the Grau-du-Roi treatment plant. The same experiment as that described in the previous example was carried out.
Molecule,% compared to β2GPI ([1]; ISAV copies captured relative to β2GPI beads),ISAV copies [1],% compared to β2GPI [2] [%],% compared to β2GPI ([3]; HCV copies captured relative to β2GPI beads),HCV/run copies [3] [copies],% compared to β2GPI [4] [%],% compared to β2GPI ([5]; IPN copies captured relative to β2GPI beads),IPN Copies [5] [copies],% compared to β2GPI [6] [%],% compared to β2GPI [7] [%],% compared to β2GPI [8] [%]
H-((SSLAFWK)2-K)2-K—NH2 [Peptide P11],(140%),78 350 copies,88,(86%),97,29,(175%),21,101,91,105
"β2GPI: plasma glycoprotein called β2-glycoprotein I, grafted on beads as the reference (protein, UniProt P02749 20-345, looked up, grafted on beads) Beta-2-glycoprotein 1: GRTCPKPDDLPFSTVVPLKTFYEPGEEITYSCKPGYVSRGGMRKFICPLTGLWPINTLKCTPRVCPFAGILENGAVRYTTFEYPNTISFSCNTGFYLNGADSAKCTEEGKWSPELPVCAPIICPPPSIPTFATLRVYKPSAGNNSLYRDTAVFECLPQHAMFGNDTITCTTHGNWTKLPECREVKCPFPSRPDNGFVNYPAKPTLYYKDKATFGCHDGYSLDGPEEIECTKLGNWSAMPSCKASCKVPVKKATVVYQGERVKIQEKFKNGMLHGDKVSFFCKNKEKKCSYTEDAQCIDGTIEVPKCFKEHSSLAFWKTDASDVKPC",–,55 800 copies,100,–,113,100,–,12,100,100,100
